Test results from ChEMBL document CHEMBL1201862, “PubChem BioAssay data set” (2004).
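1) Cells in 96-well plates. 2) Compound, 48 h, 5 concentrations. 3) Linear interpolation between surrounding doses. 4) Unreached endpoint = highest concentration. GI50: concentration for 50% inhibition of growth.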 The source made the active and inactive calls. Cut-off read from the data, not from the text of the source: active = GI50 up to about 1.1 µM and inactive = higher.

What was measured:
Assay in all cases: inhibition of tumour cell growth, NCI panel, 48 h
786-0 = tested on: 786-0
A498 = tested on: A498
CCRF-CEM = tested on: CCRF-CEM
COLO 205 = tested on: COLO 205
HT-29 = tested on: HT-29
MDA-MB-231 = tested on: MDA-MB-231
Malme-3M = tested on: Malme-3M
NCI-H522 = tested on: NCI-H522
NCI/ADR-RES = tested on: NCI/ADR-RES
OVCAR-4 = tested on: OVCAR-4
OVCAR-5 = tested on: OVCAR-5
OVCAR-8 = tested on: OVCAR-8
SK-MEL-2 = tested on: SK-MEL-2
SK-MEL-5 = tested on: SK-MEL-5
SNB-19 = tested on: SNB-19
U-251 = tested on: U-251
UACC-257 = tested on: UACC-257

Structure (SMILES)	GI50 (786-0)	GI50 (A498)	GI50 (CCRF-CEM)	GI50 (COLO 205)	GI50 (HT-29)	GI50 (MDA-MB-231)	GI50 (Malme-3M)	GI50 (NCI-H522)	GI50 (NCI/ADR-RES)	GI50 (OVCAR-4)	GI50 (OVCAR-5)	GI50 (OVCAR-8)	GI50 (SK-MEL-2)	GI50 (SK-MEL-5)	GI50 (SNB-19)	GI50 (U-251)	GI50 (UACC-257)
COc1cccc2c(Nc3ccc(S(=O)(=O)NC(C)=O)cc3)c3ccc([N+](=O)[O-])cc3nc12	33.3 µM (inactive)	56.8 µM (inactive)	55.5 µM (inactive)	28.5 µM (inactive)	13.8 µM (inactive)	21.2 µM (inactive)	33.9 µM (inactive)	17.5 µM (inactive)	> 57.1 µM (inactive)	97.7 µM (inactive)	> 66.5 µM (inactive)	27.7 µM (inactive)	49.9 µM (inactive)	22.7 µM (inactive)	> 45 µM (inactive)	23.7 µM (inactive)	25.9 µM (inactive)
CC(C)=CC(=O)O[C@@H]1CC(C)(C)CC2C3=CCC4[C@]56CC[C@](O)(OC5)C(C)(C)C6CC[C@@]4(C)C3(C)CC[C@]21C(=O)O (some centres undefined)	69.8 µM (inactive)	> 100 µM (inactive)	41.7 µM (inactive)	22.8 µM (inactive)	38.4 µM (inactive)	> 100 µM (inactive)	> 100 µM (inactive)	51.6 µM (inactive)	47.6 µM (inactive)	63.2 µM (inactive)	> 100 µM (inactive)	59.6 µM (inactive)	> 100 µM (inactive)	> 100 µM (inactive)	54.3 µM (inactive)	32.9 µM (inactive)	> 100 µM (inactive)
CC(C)=CCc1c(O)c(CC=C(C)C)c2oc3c(c(=O)c2c1O)C(C=C(C)C)Oc1cc(O)ccc1-3 (centres undefined)	6.98 µM (inactive)	16.2 µM (inactive)	0.804 µM (active)	16 µM (inactive)	10.3 µM (inactive)	12.4 µM (inactive)	20.7 µM (inactive)	3.9 µM (inactive)	12.1 µM (inactive)	7.14 µM (inactive)	18.5 µM (inactive)	6.85 µM (inactive)	2.92 µM (inactive)	8.53 µM (inactive)	10.5 µM (inactive)	4.78 µM (inactive)	14 µM (inactive)
O=C(N/N=C\c1ccc(Cl)cc1)Nc1ccc2ccccc2c1	19.3 µM (inactive)	30.9 µM (inactive)	> 100 µM (inactive)	> 100 µM (inactive)	46.2 µM (inactive)	41.9 µM (inactive)	32.8 µM (inactive)	38.9 µM (inactive)	49.3 µM (inactive)	19.8 µM (inactive)	71.6 µM (inactive)	27.4 µM (inactive)	80.4 µM (inactive)	> 100 µM (inactive)	30.4 µM (inactive)	23.9 µM (inactive)	95.5 µM (inactive)
C=C(Cl)C(Cl)(CBr)CCC(Cl)C(C)(C)Cl (centres undefined)	0.388 µM (active)	1.77 µM (inactive)	8.63 µM (inactive)	4.15 µM (inactive)	0.331 µM (active)	2.16 µM (inactive)	7.24 µM (inactive)	8.2 µM (inactive)	3.01 µM (inactive)	1.09 µM (active)	2.83 µM (inactive)	2.36 µM (inactive)	0.238 µM (active)	10.6 µM (inactive)	2.26 µM (inactive)	0.597 µM (active)	1.57 µM (inactive)
CCOC(=O)C(CC#Cc1ccc(C#CCC(NC(C)=O)C(=O)OCC)cc1)NC(C)=O (centres undefined)	> 100 µM (inactive)	> 100 µM (inactive)	> 100 µM (inactive)	> 100 µM (inactive)	> 100 µM (inactive)	> 100 µM (inactive)	> 100 µM (inactive)	> 100 µM (inactive)	> 100 µM (inactive)	> 100 µM (inactive)	> 100 µM (inactive)	> 100 µM (inactive)	> 100 µM (inactive)	> 100 µM (inactive)	> 100 µM (inactive)	–	> 100 µM (inactive)
C/C(=N\NC(=S)NCc1ccccc1)c1nc2cccnc2[nH]1	6.92 µM (inactive)	17.3 µM (inactive)	3.27 µM (inactive)	14.5 µM (inactive)	3.48 µM (inactive)	17.3 µM (inactive)	13.4 µM (inactive)	15.1 µM (inactive)	9.98 µM (inactive)	16.4 µM (inactive)	7.23 µM (inactive)	10.1 µM (inactive)	13.1 µM (inactive)	3.57 µM (inactive)	6.49 µM (inactive)	5.3 µM (inactive)	9.62 µM (inactive)
N#CC1(C#N)[C@@H]2CCC=C(Sc3ccccc3)[C@@H]21	16.1 µM (inactive)	31.7 µM (inactive)	5.71 µM (inactive)	17.3 µM (inactive)	18.6 µM (inactive)	22.2 µM (inactive)	16.9 µM (inactive)	10.8 µM (inactive)	18.4 µM (inactive)	14.3 µM (inactive)	17.8 µM (inactive)	16 µM (inactive)	14.6 µM (inactive)	13.9 µM (inactive)	23.9 µM (inactive)	16.1 µM (inactive)	17.5 µM (inactive)
N#Cc1c(-c2ccc(Cl)cc2)cc(-c2ccc(Nc3ccnc4cc(Cl)ccc34)cc2)[nH]c1=O	17.6 µM (inactive)	50.4 µM (inactive)	16 µM (inactive)	> 100 µM (inactive)	> 100 µM (inactive)	34.4 µM (inactive)	> 65.8 µM (inactive)	> 38.6 µM (inactive)	> 100 µM (inactive)	> 100 µM (inactive)	> 61.7 µM (inactive)	> 100 µM (inactive)	31.4 µM (inactive)	> 100 µM (inactive)	27.7 µM (inactive)	15.5 µM (inactive)	> 100 µM (inactive)
Cc1nc2c(Cl)cc(Cl)cc2c(Cl)c1CCCl	> 100 µM (inactive)	72.4 µM (inactive)	62.8 µM (inactive)	> 100 µM (inactive)	78.7 µM (inactive)	69.5 µM (inactive)	> 100 µM (inactive)	87.1 µM (inactive)	72.3 µM (inactive)	–	78.3 µM (inactive)	> 100 µM (inactive)	99.5 µM (inactive)	45.8 µM (inactive)	56.4 µM (inactive)	> 100 µM (inactive)	> 100 µM (inactive)
CC(C)(C)OC(=O)NCCCCCCC(=O)Cc1ccccc1	> 100 µM (inactive)	> 100 µM (inactive)	> 100 µM (inactive)	75.2 µM (inactive)	> 100 µM (inactive)	> 100 µM (inactive)	> 100 µM (inactive)	> 100 µM (inactive)	> 100 µM (inactive)	> 100 µM (inactive)	> 100 µM (inactive)	> 100 µM (inactive)	> 100 µM (inactive)	60.8 µM (inactive)	> 100 µM (inactive)	> 100 µM (inactive)	> 100 µM (inactive)
Nc1ccn(C=C=CCO)c(=O)n1	> 100 µM (inactive)	> 100 µM (inactive)	7.43 µM (inactive)	> 100 µM (inactive)	> 100 µM (inactive)	> 100 µM (inactive)	> 100 µM (inactive)	> 77.3 µM (inactive)	> 100 µM (inactive)	> 100 µM (inactive)	> 100 µM (inactive)	229 µM (inactive)	> 100 µM (inactive)	> 100 µM (inactive)	> 100 µM (inactive)	> 100 µM (inactive)	> 100 µM (inactive)
O=C(c1ccccc1)c1ccc2nc3n(c2c1)C(c1c(F)cccc1F)SC3 (centres undefined)	4.2 µM (inactive)	3.7 µM (inactive)	4.76 µM (inactive)	4 µM (inactive)	4.93 µM (inactive)	12.9 µM (inactive)	5.68 µM (inactive)	2.01 µM (inactive)	2.99 µM (inactive)	7.8 µM (inactive)	5.74 µM (inactive)	9.33 µM (inactive)	8.3 µM (inactive)	4.08 µM (inactive)	4.98 µM (inactive)	6.67 µM (inactive)	18.1 µM (inactive)
COc1ccc2[nH]c3c(C)c4ccnc(NCCCN(C)CCCN)c4c(C)c3c2c1	0.0596 µM (active)	0.217 µM (active)	0.0726 µM (active)	0.0778 µM (active)	0.042 µM (active)	0.0873 µM (active)	0.31 µM (active)	0.0189 µM (active)	0.394 µM (active)	0.0809 µM (active)	0.176 µM (active)	0.162 µM (active)	0.336 µM (active)	0.178 µM (active)	0.213 µM (active)	0.0803 µM (active)	0.979 µM (active)
CCCCCC/C=C\CCCCCCCCC(=O)c1cccc(OC)c1OC	> 100 µM (inactive)	26 µM (inactive)	35.6 µM (inactive)	87.3 µM (inactive)	41.9 µM (inactive)	> 100 µM (inactive)	> 100 µM (inactive)	44.6 µM (inactive)	60.8 µM (inactive)	–	> 100 µM (inactive)	> 100 µM (inactive)	> 100 µM (inactive)	15.2 µM (inactive)	> 100 µM (inactive)	> 100 µM (inactive)	34.4 µM (inactive)
CC(=O)OC1COC(n2nc(/C=C/c3ccc(Cl)cc3)c(=O)n(/N=C/c3ccccc3)c2=S)C(OC(C)=O)C1OC(C)=O (centres undefined)	> 100 µM (inactive)	> 100 µM (inactive)	> 100 µM (inactive)	> 100 µM (inactive)	> 100 µM (inactive)	> 100 µM (inactive)	> 100 µM (inactive)	> 100 µM (inactive)	> 100 µM (inactive)	> 100 µM (inactive)	> 100 µM (inactive)	> 100 µM (inactive)	> 100 µM (inactive)	> 100 µM (inactive)	> 100 µM (inactive)	> 100 µM (inactive)	> 100 µM (inactive)
